Results from ChEMBL document CHEMBL1151134, “Anti-AIDS agents, 1. Isolation and characterization of four new tetragalloylquinic acids as a new class of HIV reverse transcriptase inhibitors from tannic acid” (J Nat Prod, 1989).

Key:
[1] = test system: Human immunodeficiency virus; assay: Inhibition of HIV reverse transcriptase assessed as incorporation of [3H]dTMP at 100 uM
[2] = test system: Human immunodeficiency virus; assay: Inhibition of HIV reverse transcriptase assessed as incorporation of [3H]dTMP at 30 uM
[3] = test system: Human immunodeficiency virus; assay: Inhibition of HIV reverse transcriptase assessed as incorporation of [3H]dTMP at 10 uM
[4] = test system: Human immunodeficiency virus 1; assay: Antiviral activity against HIV1 3B replication in human H9 cells at 25 uM after 3 days by p24 antigen capture assay relative to control; format: functional; conditions: Human immunodeficiency virus 1, 3B, H9, 72 h
[5] = test system: Human immunodeficiency virus 1; assay: Antiviral activity against HIV1 3B replication in human H9 cells at 6.25 uM after 3 days by p24 antigen capture assay relative to control; format: functional; conditions: Human immunodeficiency virus 1, 3B, H9, 72 h
[6] = test system: Human immunodeficiency virus 1; assay: Antiviral activity against HIV1 3B replication in human H9 cells at 1.25 uM after 3 days by p24 antigen capture assay relative to control; format: functional; conditions: Human immunodeficiency virus 1, 3B, H9, 72 h
[7] = Cytotoxicity against human H9 cells at 25 uM; format: cell-based; conditions: read-out: INH
[8] = test system: H9; assay: Cytotoxicity against human H9 cells at 1.25 uM; format: cell-based; conditions: h9, 1.25 µM
[9] = test system: H9; assay: Cytotoxicity against human H9 cells at 6.25 uM; format: cell-based; conditions: h9, 6.25 µM
[10] = test system: Human immunodeficiency virus; assay: Inhibition of HIV reverse transcriptase assessed as incorporation of [3H]dTMP at 100 nM
[11] = test system: Human immunodeficiency virus 1; assay: Antiviral activity against HIV1 3B replication in human H9 cells at 30.8 uM after 3 days by p24 antigen capture assay relative to control; format: functional; conditions: Human immunodeficiency virus 1, 3B, H9, 72 h
[12] = test system: Human immunodeficiency virus 1; assay: Antiviral activity against HIV1 3B replication in human H9 cells at 7.7 uM after 3 days by p24 antigen capture assay relative to control; format: functional; conditions: Human immunodeficiency virus 1, 3B, H9, 72 h
[13] = test system: Human immunodeficiency virus 1; assay: Antiviral activity against HIV1 3B replication in human H9 cells at 1.5 uM after 3 days by p24 antigen capture assay relative to control; format: functional; conditions: Human immunodeficiency virus 1, 3B, H9, 72 h
[14] = test system: Human immunodeficiency virus; assay: Inhibition of HIV reverse transcriptase assessed as incorporation of [3H]dTMP at 100 ug/ml
[15] = target: T1, DNA polymerase alpha catalytic subunit (Homo sapiens) (UniProt P09884); assay: Inhibition of human DNA polymerase alpha
T1 sequence (whole entry): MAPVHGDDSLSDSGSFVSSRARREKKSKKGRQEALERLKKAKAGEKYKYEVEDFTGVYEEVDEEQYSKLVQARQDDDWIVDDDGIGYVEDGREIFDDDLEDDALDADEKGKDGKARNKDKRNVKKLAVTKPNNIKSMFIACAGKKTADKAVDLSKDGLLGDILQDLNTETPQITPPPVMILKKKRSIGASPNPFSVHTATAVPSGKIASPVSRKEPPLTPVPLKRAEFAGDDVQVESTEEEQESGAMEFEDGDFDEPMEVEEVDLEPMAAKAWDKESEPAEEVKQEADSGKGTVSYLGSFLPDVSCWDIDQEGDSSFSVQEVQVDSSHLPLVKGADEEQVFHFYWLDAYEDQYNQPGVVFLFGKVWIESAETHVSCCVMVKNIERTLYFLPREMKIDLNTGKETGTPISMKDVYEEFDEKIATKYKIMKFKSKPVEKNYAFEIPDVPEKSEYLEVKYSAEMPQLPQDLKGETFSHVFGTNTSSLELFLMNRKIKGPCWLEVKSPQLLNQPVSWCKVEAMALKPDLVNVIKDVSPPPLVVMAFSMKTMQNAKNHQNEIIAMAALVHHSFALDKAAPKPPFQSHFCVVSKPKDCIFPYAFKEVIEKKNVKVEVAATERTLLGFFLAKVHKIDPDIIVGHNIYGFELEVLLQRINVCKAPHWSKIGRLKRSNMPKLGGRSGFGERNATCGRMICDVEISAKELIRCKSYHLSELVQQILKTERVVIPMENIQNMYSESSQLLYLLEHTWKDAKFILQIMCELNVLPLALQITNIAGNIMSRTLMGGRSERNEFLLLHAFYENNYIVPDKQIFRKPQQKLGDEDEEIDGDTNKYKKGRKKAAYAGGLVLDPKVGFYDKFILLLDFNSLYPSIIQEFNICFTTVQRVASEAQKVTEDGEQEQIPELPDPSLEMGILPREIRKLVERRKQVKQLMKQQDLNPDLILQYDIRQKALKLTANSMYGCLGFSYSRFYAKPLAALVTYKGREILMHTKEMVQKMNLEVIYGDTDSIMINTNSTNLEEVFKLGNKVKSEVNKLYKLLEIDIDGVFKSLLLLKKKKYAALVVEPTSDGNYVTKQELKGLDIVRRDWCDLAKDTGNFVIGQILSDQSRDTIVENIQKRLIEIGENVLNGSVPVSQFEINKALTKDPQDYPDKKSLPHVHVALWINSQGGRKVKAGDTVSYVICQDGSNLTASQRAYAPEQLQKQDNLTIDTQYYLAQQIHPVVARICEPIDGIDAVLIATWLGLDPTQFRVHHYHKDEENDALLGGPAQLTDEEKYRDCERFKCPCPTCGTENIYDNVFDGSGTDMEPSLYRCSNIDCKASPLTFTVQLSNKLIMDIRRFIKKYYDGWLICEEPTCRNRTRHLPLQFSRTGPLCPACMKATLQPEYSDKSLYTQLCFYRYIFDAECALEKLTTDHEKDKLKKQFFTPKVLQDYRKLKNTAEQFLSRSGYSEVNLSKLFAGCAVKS

[16] = target: DNA polymerase beta (Homo sapiens) (UniProt P06746); assay: Inhibition of human DNA polymerase beta
[17] = target: T2, DNA polymerase subunit gamma-1 (Homo sapiens) (UniProt P54098); assay: Inhibition of human DNA polymerase gamma
T2 sequence (whole entry): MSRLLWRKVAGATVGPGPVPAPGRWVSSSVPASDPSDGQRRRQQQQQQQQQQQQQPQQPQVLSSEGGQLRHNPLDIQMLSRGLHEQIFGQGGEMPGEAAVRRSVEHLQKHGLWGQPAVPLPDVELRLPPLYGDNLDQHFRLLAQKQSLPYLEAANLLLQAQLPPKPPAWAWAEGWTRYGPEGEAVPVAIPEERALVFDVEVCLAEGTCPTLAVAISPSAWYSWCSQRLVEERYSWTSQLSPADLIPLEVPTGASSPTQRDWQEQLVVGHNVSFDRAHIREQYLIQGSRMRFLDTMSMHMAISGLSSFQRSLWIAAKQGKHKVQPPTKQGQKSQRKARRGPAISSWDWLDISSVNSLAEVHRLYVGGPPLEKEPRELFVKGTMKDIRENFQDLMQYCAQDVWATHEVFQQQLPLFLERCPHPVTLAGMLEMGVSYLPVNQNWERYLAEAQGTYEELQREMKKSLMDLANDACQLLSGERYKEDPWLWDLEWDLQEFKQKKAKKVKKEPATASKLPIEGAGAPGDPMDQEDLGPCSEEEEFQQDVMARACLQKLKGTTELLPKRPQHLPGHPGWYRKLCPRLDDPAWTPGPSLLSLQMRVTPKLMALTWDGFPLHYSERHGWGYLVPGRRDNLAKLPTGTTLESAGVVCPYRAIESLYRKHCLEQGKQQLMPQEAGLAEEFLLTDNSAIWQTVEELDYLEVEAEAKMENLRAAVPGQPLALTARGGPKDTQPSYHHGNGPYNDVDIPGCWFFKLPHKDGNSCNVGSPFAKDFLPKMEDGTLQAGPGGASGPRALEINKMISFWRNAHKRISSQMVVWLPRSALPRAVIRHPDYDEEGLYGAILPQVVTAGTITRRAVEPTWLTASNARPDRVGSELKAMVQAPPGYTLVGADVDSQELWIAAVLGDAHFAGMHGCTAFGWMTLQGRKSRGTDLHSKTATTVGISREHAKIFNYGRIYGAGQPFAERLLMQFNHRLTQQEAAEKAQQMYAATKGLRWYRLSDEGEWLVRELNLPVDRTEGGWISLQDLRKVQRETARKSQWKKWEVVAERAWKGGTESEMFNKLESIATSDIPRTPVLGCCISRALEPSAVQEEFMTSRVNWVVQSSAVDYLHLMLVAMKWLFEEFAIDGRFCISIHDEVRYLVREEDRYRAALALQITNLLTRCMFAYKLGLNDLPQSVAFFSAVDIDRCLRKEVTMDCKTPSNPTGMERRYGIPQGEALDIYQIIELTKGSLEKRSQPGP

[18] = test system: Human immunodeficiency virus; assay: Inhibition of HIV reverse transcriptase
[19] = test system: Human immunodeficiency virus; assay: Inhibition of HIV reverse transcriptase assessed as incorporation of [3H]dTMP at 0.6 uM

inhibition [1]	inhibition [2]	inhibition [3]	Compound	inhibition at 25 µM [4]	inhibition at 6.25 µM [5]	inhibition at 1.25 µM [6]	cytotoxicity at 25 µM [7]	Activity [8]	Activity [9]	also measured
84%	63%	50%	O=C(Oc1c(O)cc(C(=O)O[C@@H]2C[C@](O)(C(=O)O)C[C@@H](OC(=O)c3cc(O)c(O)c(O)c3)[C@H]2OC(=O)c2cc(O)c(O)c(O)c2)cc1O)c1cc(O)c(O)c(O)c1	61%	44%	13%	25%	Non-toxic	Non-toxic	
			Cc1cn([C@H]2C[C@H](N=[N+]=[N-])[C@@H](COP(=O)(O)OP(=O)(O)OP(=O)(O)O)O2)c(=O)[nH]c1=O							inhibition [10]: 64%
94%	84%	36%	O=C(O[C@@H]1C[C@](OC(=O)c2cc(O)c(O)c(O)c2)(C(=O)O)C[C@@H](OC(=O)c2cc(O)c(O)c(O)c2)[C@H]1OC(=O)c1cc(O)c(O)c(O)c1)c1cc(O)c(O)c(O)c1	66%	52%	15%	25%	Non-toxic	Non-toxic	
58%	48%	39%	O=C(O[C@@H]1C[C@](O)(C(=O)O)C[C@@H](OC(=O)c2cc(O)c(O)c(O)c2)[C@H]1OC(=O)c1cc(O)c(O)c(O)c1)c1cc(O)c(O)c(O)c1				14%	Non-toxic	Non-toxic	inhibition at 30.8 µM [11]: 70%; inhibition at 7.7 µM [12]: 59%; inhibition at 1.5 µM [13]: 26%
			O=C(OC[C@H]1O[C@@H](OC(=O)c2cc(O)c(O)c(OC(=O)c3cc(O)c(O)c(O)c3)c2)[C@H](OC(=O)c2cc(O)c(O)c(OC(=O)c3cc(O)c(O)c(O)c3)c2)[C@@H](OC(=O)c2cc(O)c(O)c(OC(=O)c3cc(O)c(O)c(O)c3)c2)[C@@H]1OC(=O)c1cc(O)c(O)c(OC(=O)c2cc(O)c(O)c(O)c2)c1)c1cc(O)c(O)c(OC(=O)c2cc(O)c(O)c(O)c2)c1							inhibition [14]: 74%
89%	70%	55%	O=C(Oc1c(O)cc(C(=O)O[C@@H]2C[C@@](O)(C(=O)O)C[C@@H](OC(=O)c3cc(O)c(O)c(O)c3)[C@@H]2OC(=O)c2cc(O)c(O)c(O)c2)cc1O)c1cc(O)c(O)c(O)c1	63%	50%	28%	0%	Non-toxic	Non-toxic	ID50 [15]: 0.065 µM; ID50 [16]: 21 µM; ID50 [17]: 2.5 µM; ID50 [18]: 29 µM
			O=C(O)P(=O)(O)O							inhibition [19]: 63%
90%	73%	53%	O=C(Oc1c(O)cc(C(=O)O[C@H]2[C@H](OC(=O)c3cc(O)c(O)c(O)c3)C[C@](O)(C(=O)O)C[C@H]2OC(=O)c2cc(O)c(O)c(O)c2)cc1O)c1cc(O)c(O)c(O)c1	71%	57%	34%	14%	Non-toxic	Non-toxic	
